{
  "source": "ChEMBL document CHEMBL1159319",
  "about": "“Deoxyartemisinin derivatives from photooxygenation of anhydrodeoxydihydroartemisinin and their cytotoxic evaluation” (2002)",
  "assay_type_in_all_cases": "functional",
  "conditions_in_all_cases": "read-out: ED50 (the source's name)",
  "key": {"K562": {"test_system": "K562", "experiment": "Cytotoxicity against human K562 cells"}, "MCF7": {"test_system": "MCF7", "experiment": "Cytotoxicity against human MCF7 cells"}, "HL-60": {"test_system": "HL-60", "experiment": "Cytotoxicity against human HL-60(TB) cells"}, "IGROV-1": {"test_system": "IGROV-1", "experiment": "Cytotoxicity against human IGROV1 cells"}, "HOP-92": {"test_system": "HOP-92", "experiment": "Cytotoxicity against human HOP92 cells"}, "CCRF-CEM": {"test_system": "CCRF-CEM", "experiment": "Cytotoxicity against human CCRF-CEM cells"}, "RPMI-8226": {"test_system": "RPMI-8226", "experiment": "Cytotoxicity against human RPMI8226 cells"}, "BT-549": {"test_system": "BT-549", "experiment": "Cytotoxicity against human BT549 cells"}, "SR": {"test_system": "SR", "experiment": "Cytotoxicity against human SR cells"}},
  "data": [
    {"smiles": "C=C1C(=O)O[C@@H]2O[C@@]3(C)CC[C@H]4[C@H](C)CC[C@@H]1[C@@]24O3", "note": "[DEOXYARTEMISITENE]", "values": [
      {"measurement": "EC50", "setting": "K562", "value": 0.94, "unit": "µg/mL"},
      {"measurement": "EC50", "setting": "MCF7", "value": 1.46, "unit": "µg/mL"},
      {"measurement": "EC50", "setting": "HL-60", "value": 0.69, "unit": "µg/mL"},
      {"measurement": "EC50", "setting": "IGROV-1", "value": 0.89, "unit": "µg/mL"},
      {"measurement": "EC50", "setting": "HOP-92", "value": 0.92, "unit": "µg/mL"},
      {"measurement": "EC50", "setting": "CCRF-CEM", "value": 0.92, "unit": "µg/mL"},
      {"measurement": "EC50", "setting": "RPMI-8226", "value": 1.68, "unit": "µg/mL"},
      {"measurement": "EC50", "setting": "BT-549", "value": 1.97, "unit": "µg/mL"},
      {"measurement": "EC50", "setting": "SR", "value": 1.89, "unit": "µg/mL"}
    ]}
  ]
}
